The subject of this test is MHC class II expression in B220 positive B cells of mouse spleen cells. As to the kind of experiment: In vitro MHC class II expression inhibitory effect using mouse spleen cells (LPS-stimulated B cells, flow cytometry). In kind it is cell-based, C57BL/6 mice. The settings on record: B-cell, C57BL/6 spleen cells, LPS 2 μg/mL, 48 hours, B220 positive B cells, read-out: IC50 value of MHC class II expression inhibition (Data 2). The method, then:
Test Example 2 Evaluation of In Vitro MHC Class II Expression Inhibitory Effect Using Mouse Spleen Cells (Cell Evaluation System)
In antigen-presenting cells, the inhibition of cathepsin S inhibits the expression of MHC class II molecules. […] For an increased expression of MI-IC class II in B cells, the inhibitory effect of the compound represented by formula (I) was examined.
First, spleen cells collected from C57BL/6 mice were seeded in a 96-well plate so as to be a 1×10^5 cells/well, then, 5-fold dilution of 10 mM DMSO solution of the test compound was serially performed with RPMI 1640 medium (including 10% fetal bovine serum (FCS), 5×10^−5 M 2-mercaptoethanol, 50 IU/mL penicillin and 50 μg/mL streptomycin) nine times such that the final concentration becomes 0.026 nM to 10 μM, and the resultant products were added thereto (the final DMSO concentration was 0.1%). At the same time, LPS (Sigma L4005) was added to the wells such that the final concentration becomes 2 μg/mL, and culture was performed at 37° C. for 48 hours in 5% CO2. After culturing, the cells were stained at 4° C. for 20 minutes with PE-labeled streptavidin (BD BIOSCIENCE 554061) and biotin-labeled YAe antibody (EBIOSCIENCE 13-5741-85) together with FITC-labeled anti-mouse B220 antibody (BD BIOSCIENCE 553088), and an expression level (fluorescence intensity of YAe-biotin/streptavidin-PE) of MHC class II to which Ea peptide in B220 positive B cells was bonded was measured using a flow cytometry system (Guava EasyCyte Plus System, manufactured by Millipore Corporation). A value at the time of unstimulation of LPS in which the test compound was not added and a value at the time of stimulation of LPS in which the test compound was not added were set to 100% inhibition and 0% inhibition, respectively, then, an inhibition rate at each concentration was determined, and IC50 values were calculated by a linear regression method. In the Table, Ex represents Example compound No., and Data 2 represents an IC50 value (nM).
On the technique in general: Flow cytometry measures light scatter and fluorescence of single cells or particles in a stream.
A word on the IC50: it is the concentration that gives 50% inhibition. For `Cn1ccc2c(-c3cnc(OCC4CCN(C(=O)C5CCN(CC(C)(C)O)CC5)CC4)c(C(F)(F)F)c3)nc(C#N)nc21` [Example 135, 4-{6-[(1-{[1-(2-hydroxy-2-methylpropyl)piperidin-4-yl]carbonyl}piperidin-4-yl)methoxy]-5-(trifluoromethyl)pyridin-3-yl}-7-methyl-7H-pyrrolo[2,3-d]pyrimidine-2-carbonitrile], the IC50 came out at 890 pM.
With `CCN1CCC(COc2ccc(-c3nc(C#N)nc4c3ccn4CC3CCOC3)cc2C(F)(F)F)CC1` (stereo not shown) [Example 106], the IC50 amounted to 3200 pM.
On to `CCN1CCC(CCOc2ccc(-c3nc(C#N)nc4c3ccn4CC3CCOC3)cc2C(F)(F)F)CC1` (stereo not shown) [Example 54], for which the IC50 was 940 pM.
On to `CN(C)C(=O)CN1CCC(CCOc2ccc(-c3nc(C#N)nc4c3ncn4C)cc2C(F)(F)F)CC1` [Example 72], for which the IC50 worked out at 730 pM.
Consider `CN(C)C(=O)CN1CCC(CCOc2ccc(-c3nc(C#N)nc4c3ccn4CCO)cc2C(F)(F)F)CC1` [Example 21], for which the IC50 came out at 1000 pM.
In the case of `Cn1cnc2c(-c3ccc(OCCC4CCN(CC(=O)N5CCC(C#N)CC5)CC4)c(C(F)(F)F)c3)nc(C#N)nc21` [Example 120] it was 1000 pM; in that of `CN1CCC[C@H]1C(=O)N1CCC(COc2ccc(-c3nc(C#N)nc4c3ccn4CC3CCOC3)cc2C(F)(F)F)CC1` (stereo partly shown) [Example 105], 910 pM.
In the case of `CCN1CCC(CCOc2ccc(-c3nc(C#N)nc4c3ncn4CC3CCOC3)cc2C(F)(F)F)CC1` (stereo not shown) [Example 70] it was 760 pM; in that of `CCN1CCC(CCOc2ncc(-c3nc(C#N)nc4c3ncn4CC3CCOC3)cc2C(F)(F)F)CC1` (stereo not shown) [Example 71], 1300 pM; in that of `CN1CCC[C@H]1C(=O)N1CCC(CCOc2ncc(-c3nc(C#N)nc4c3ccn4C)cc2C(F)(F)F)CC1` [Example 41], 1100 pM.
Next, `CN1CCC[C@H]1C(=O)N1CCC(CCOc2ccc(-c3nc(C#N)nc4c3ccn4CC3CCOC3)cc2C(F)(F)F)CC1` (stereo partly shown) [Example 30]: 970 pM; `CN1CCC[C@H]1C(=O)N1CCC(CCOc2ncc(-c3nc(C#N)nc4c3ncn4C)cc2C(F)(F)F)CC1` [Example 40]: 850 pM; `CCN1CCC(CCOc2ccc(-c3nc(C#N)nc4c3ccn4CCO)cc2C(F)(F)F)CC1` [Example 110]: 910 pM.
For the compound `CN(C)C(=O)CN1CCC(CCOc2ccc(-c3nc(C#N)nc4c3ccn4CC3CCOC3)cc2C(F)(F)F)CC1` (stereo not shown) [Example 66], the half-maximal inhibitory concentration (IC50) came out at 2100 pM.
Regarding `Cn1ccc2c(-c3cnc(OCCC4CCNCC4)c(C(F)(F)F)c3)nc(C#N)nc21` [Example 116], the 50% inhibitory concentration (IC50) was found to be 1800 pM.
On to `Cn1cnc2c(-c3ccc(OCCC4CCNCC4)c(C(F)(F)F)c3)nc(C#N)nc21` [Example 19], for which the 50% inhibitory concentration (IC50) is 700 pM.
Turning to `CCN1CCC(CCOc2ncc(-c3nc(C#N)nc4c3ccn4CC3CCOC3)cc2C(F)(F)F)CC1` (stereo not shown) [Example 52], the 50% inhibitory concentration (IC50) stood at 1800 pM.
On to `CN1CCC[C@H]1C(=O)N1CCC(CCOc2ncc(-c3nc(C#N)nc4c3ncn4CC3CCOC3)cc2C(F)(F)F)CC1` (stereo partly shown) [Example 79], for which the IC50 came out at 2500 pM.
In the case of `Cn1cnc2c(-c3ccc(OCCC4CCN(CCO)CC4)c(C(F)(F)F)c3)nc(C#N)nc21` [Example 24] it was 800 pM.

(Values after patent US9328118B2, “Nitrogen-containing bicyclic aromatic heterocyclic compound” (ASTELLAS PHARMA INC., priority 2012, dated 2016).)
